Results on 2 substances are retold here after US6911470B1, “Polyoxometalate compounds as antiviral agents” (priority 1988, dated 2005).

In one data set the test system is human PBM cells. The data set can be described thus: Cytotoxicity assay on uninfected PHA stimulated human PBMC (trypan blue). Format: cell-based. The conditions noted are these: Table 1; read-out: IC50 Toxicity in Human PBM Cells. The procedure: Cells. […] PBS), and pelleted at 300×g for 10 minutes. […] Cytotoxicity assay. The drugs were evaluated for their potential toxic effects on uninfected PHA stimulated human PBMC. Flasks were seeded so that the final cell concentration was 2×10^5 cells/ml. The cells were cultured with and without drug for 6 days, at which time aliquots were counted for cell viability, as assessed by the trypan blue dye-exclusion method using a hemacytometer. The median inhibitory concentration (IC50) was calculated using the median effect method (Chou et al, Elsevier-Biosoft, Elsevier Science Publishers, Cambridge, U.K., 1985; Chou et al, Adv. Enz. Regul. 22, 27-55, 1984). Median-effect method. Dose-effect relationships were analyzed by the median-effect equation (Chou et al, Adv. Enz. Regul. 22, 27-55, 1984). The slope (m) and median effective and inhibitory concentration (EC50 and IC50) values were obtained by using a computer program developed by Chou and Chou (Chou et al, Elsevier-Biosoft, Elsevier Science Publishers, Cambridge, U.K., 1985).

For data set [1] the following is noted: reason it must be taken intravenously; cited from earlier work.
For data set [2] the following is noted: background statement; AZT in a clinical setting; cited from earlier work.
The subject of a further data set is HIV-1 (strain LAV-1). The data set can be described thus: microbe, parasite or virus in culture. Format: cell-based. The procedure: Cells. Human peripheral blood mononuclear cells (PBMC) from healthy HIV-1 seronegative and hepatitis B virus seronegative donors were isolated by Ficoll-Hypaque discontinuous gradient centrifugation at 1,000×g for 30 minutes, washed twice in phosphate-buffered saline (pH 7.2; PBS), and pelleted at 300×g for 10 minutes. Before infection, the cells were stimulated by phytohemagglutinin (PHA) at a concentration of 6 μg/ml for three days in RPMI 1640 medium supplemented with 15% heat-inactivated fetal calf serum, 1.5 mM L-glutamine, penicillin (100 U/ml), streptomycin (100 μg/ml), and 4mM sodium bicarbonate buffer.
Viruses. HIV-1 (strain LAV-1) was obtained from Dr. P. Feorino (Centers for Disease Control, Atlanta, Ga.). The virus was propagated in human PBMC using RPMI 1640 medium, as described previously (McDougal et al, J. Immun. Meth. 76, 171-183, 1985) without PHA and supplemented with 7% v/v interleukin-2 (Advanced Biotechnologies, Silver Spring, Md.), 7 μg/ml DEAE-dextran (Pharmacia, Uppsala, Sweden), and 370 U/ml anti-human leucocyte (alpha) interferon (ICN, Lisle, Ill.). Virus obtained from cell-free culture supernatant was titrated and stored in aliquots at −80° C. until use.
Inhibition of virus replication in human PBMC. Uninfected PHA-stimulated human PBMC were uniformly distributed among 25 cm^2 flasks to give a 5 ml suspension containing about 2×10^6 cells/ml. Suitable dilutions of virus were added to infect the cultures. The mean reverse transcriptase (RT) activity of the inocula was 50,000 decompositions per min/ml corresponding to about 100 TCID50, as determined by Groopman et al. (Groopman et al, AIDS Res. Human Retro. 3, 71-85, 1987. The drugs at twice their final concentrations in 5 ml of RPMI 1640 medium, supplemented as described above, were added to the cultures. Uninfected and untreated PBMC at equivalent cell densities were grown in parallel as controls. The cultures were maintained in a humidified 5% CO2-95% air incubator at 37° C. for six days after infection, at which point all cultures were sampled for supernatant reverse transcriptase (RT) activity.
RT activity assay. Six ml supernatant from each culture was clarified from cells at 300×g for 10 minutes. Virus particles were pelleted from 5 ml samples at 40,000 rpm for 30 minutes using a Beckman 70.1 Ti rotor and suspended in 200 μl of virus disrupting buffer (50 mM Tris-Cl, pH 7.8, 800 mM NaCl, 20% glycerol, 0.5 mM phenylmethyl sulfonyl fluoride, and 0.5% Triton X-100).
The RT assay was performed in 96-well microtiter plates, as described by Spira et al. (Spira et al, J. Clin. Microbiol. 22, 97-99, 1987). The reaction mixture, which contained 50 mM Tris-Cl pH 7.8, 9 mM MgCl2, 5 mM dithiothreitol (DTT), 4.7 μg/ml (rA)n. (dT)12-18, 140 μM dATP, and 0.22 μM [^3H]TTP, specific activity 78.0 Ci/mmol, equivalent to 17,300 cpm/pmol; NEN Research Products, Boston, Mass., was added to each well. The sample (20 μl) was added to the reaction mixture which was then incubated at 37° C. for 2 hours. The reaction was terminated by the addition of 100 μl 10% trichloroacetic acid (TCA) containing 0.45 mM sodium pyrophosphate. The acid-insoluble nucleic acids which precipitated were collected on glass filters using a Skatron semi-automatic harvester. The filters were washed with 5% TCA and 70% ethanol, dried, and placed in scintillation vials. Four ml of scintillation fluid (Econofluor, NEN Research Products, Boston, Mass.) were added and the amount of radioactivity in each sample was determined using a Packard Tri-Carb liquid scintillation analyzer (model 2,000CA). The results were expressed in dpm/ml of original clarified supernatant.
Median-effect method. Dose-effect relationships were analyzed by the median-effect equation (Chou et al, Adv. Enz. Regul. 22, 27-55, 1984).

Another data set deals with human bone marrow cells. The conditions noted are these: background statement; cited from earlier work.
A short description of data set [3]: Comparison of toxicity of polyoxometalate compounds in mice (mortality, haematology). Format: in vivo. More on the design: MCV (mean corpuscular volume): unit not given here. The following applies: BID × 6, 60 mkd i.p. The text has this:
Comparison of Toxicity of Polyoxometalate Compounds Mice.
In vivo antiviral experiments. […] Treatment was continued daily for 6 or 10 days.

The subject of data set [4] is human granulocyte-macrophage precursor cells. Format: cell-based. The text has this:
Preparation of Cells. Human bone marrow cells were collected by aspiration from the posterior iliac crest of normal healthy volunteers, treated with heparin and the mononuclear population separated by Ficoll-Hypaque gradient centrifugation. Cells were washed twice in Hanks balanced salt solution, counted with a hemacytometer and their viability was >98% as assessed by trypan blue exclusion.
Assay of Colony-Forming Unit Granulocyte-Macrophage (CFU-GM) for Drug Cytotoxicity. The culture assay for CFU-GM was performed using a bilayer soft-agar method as recently described (Sommadossi et al, Antimicrob. Agents Chemother. 31, 452-454, 1987). McCoy 5A nutrient medium supplemented with 15% dialyzed fetal bovine serum (heat inactivated at 56° C. for 30 min.) (Gibco Laboratories, Grand Island, N.Y.) was used in all experiments. This medium was completely lacking in thymidine and uridine. Cells were cloned in 0.3% agar in the presence of increasing concentrations of the modulating compound or in medium alone (control). After 14 days of incubation at 37° C. in a humidified atmosphere of 5% CO2 in air, colonies (≧50 cells) were counted using an inverted microscope.
The toxicities of a variety of polyoxometalates with respect to human bone marrow cells (human granulocyte-macrophage precursor cells) were assessed.

In data set [5] the test system is Mouse Ecotropic, CNS (CAS-Br-M). The data set can be described thus: UV/XC assay for murine retroviruses in SC-1 cells. The conditions noted are these: Table 2; read-out: EC-50 Mouse Ecotropic, CNS (CAS-Br-M). Format: cell-based, murine retrovirus.
Method: UV/XC Assay for Murine Retroviruses Cells. Mouse embryo fibroblasts (SC-1) and XC cells were obtained from the American Type Culture Collection, Rockville, Md. […] The cells were maintained in Eagle's minimum essential medium with Hanks balanced salt solution, supplemented with penicillin (100 U/ml), streptomycin (100 μg/ml), sodium bicarbonate (24 mM), Hepes (25 mM), and either 2 (maintenance) or 10 (growth) percent inactivated newborn or fetal calf serum.
Virus quantitation by UV-XC assay. The XC test (Rowe et al, Virology 42, 1136-1139, 1970) is a plaque-type of assay which tests for the presence and titer of B- and N-tropic murine leukemia viruses. Because these viruses produce no overt signs of infection of SC-1 mouse cells, it is necessary to overlay the virus producing culture with an indicator cell line, XC. The number of syncytia that are produced is a direct measure of the virus titer in FFU.
Six-well plates were seeded with 1×10^5 SC-1 mouse cells on the first day. On the following day the medium was removed and the inoculum (0.2 ml) was added in medium containing polybrene (4 μg/ml). For determining the antiviral activity of the compounds in culture, the virus dilution selected produced in untreated cultures about 80 foci per well. […] Control cells without virus but receiving the drug provided an estimate of the drug's toxic effects as quantitated by using trypan blue staining.
Data set [6] addresses T1, HIV-1 reverse transcriptase (Human immunodeficiency virus type 1 group M subtype B, UniProt P04585).
T1 construct: HIV-1 RT was isolated from detergent disrupted virions; made in house; host or cells: virions pelleted from culture fluid of HIV-1-infected PHA-stimulated human PBMC; DEAE-cellulose and phosphocellulose chromatography
The data set can be described thus: Evaluation of compounds on purified retroviral RT (cell-free, virion-derived). Format: biochemical. The conditions noted are these: Table 2; read-out: EC-50 Cell-Free RT (virion-derived). Here is the method:
Evaluation of compounds on purified retroviral RT. HIV-1 RT was isolated from detergent disrupted virions obtained from the cell-free supernatant of infected PHA-stimulated PBMC. The enzyme was purified by passing the extract through ion-exchange chromatography columns, as described previously (Eriksson et al, Antimicrob. Agents Chemother. 31, 600-604, 1977. Briefly, 750 ml of culture fluid harvested from HIV-1-infected PBMC were ultracentrifuged to pellet the virus. The pellet was dissolved in buffer A [50 mM Tris-HCl, pH 7.9/0.25% Nonidet P-40/5 mM dithiothreitol/20% (vol/vol) glycerol] containing 1 mM EDTA, and freeze-thawed four times. After clarification by centrifugation, the enzyme was partially purified from the supernatant by passing the extract through a DEAE-cellulose column (Whatman DE-52; 2.6×15 cm) previously equilibrated with buffer B (50 mM Tris-Cl, pH 7.9, 50 mM KCl, 1 mM EDTA, 1 mM dithiothreitol, 20% glycerol). Elution was performed using a linear gradient 50-500 mM KCl in buffer B. Fractions containing enzyme activity were dialyzed against buffer B and were further purified on a phosphocellulose column (Whatman P-11) using a linear KCl (50-500 mM) gradient in buffer B. The peak fractions were pooled and dialyzed against buffer B. The enzyme was characterized as HIV-1 reverse transcriptase based on its cation, salt, pH, and template requirements according to previous descriptions (Eriksson et al, Antimicrob. Agents Chemother. 31, 600-604, 1977). The standard reaction mixture was used to evaluate the inhibitory effect of the drugs, as previously described (Eriksson et al, Antimicrob. Agents Chemother. 31, 600-604, 1977). Briefly, the reaction mixtures (final volume 100 μl) contained 100 mM Tris-HCl, pH 8.0, 50 mM KCl, 2 mM MgCl2, 5 mM DTT, 400 ug/ml bovine serum albumin, 3 μg/ml (rA)·(dT)12-18 and 1 μM of [^3H]TTP (specific activity 82.3 Ci/mmol). The reactions were started by the addition of 10 μl of partially purified RT, incubated at 37° C. for 60 min., and processed as previously described (Eriksson et al, Antimicrob. Agents Chemother. 31, 600-604, 1977).
Median-effect method. Dose-effect relationships were analyzed by the median-effect equation (Chou et al, Adv. Enz. Regul. 22, 27-55, 1984). The slope (m) and median effective and inhibitory concentration (EC50 and IC50) values were obtained by using a computer program developed by Chou and Chou (Chou et al, Elsevier-Biosoft, Elsevier Science Publishers, Cambridge, U.K., 1985).

[7] abbreviates: Table 2, several values per cell, some in brackets, read-out: EC-50 HIV-1 (LAV-1).

Read-outs that look alike come from different tables or passages of the source.

In general, IC50 refers to the midpoint of a concentration-inhibition curve. As to “(NH4)17Na[NaSbgW21O86] [Formula 1, reference compound]”, in the data set with human PBM cells, the half-maximal inhibitory concentration (IC50) came out at 35000 nM. Also, in data set [1], the “pH at which it degrades” value was below 4. The adverse effect result in [2] is on record as “induces thrombocytopenia”. The EC50 in the data set on HIV-1 (strain LAV-1) (Table 1, read-out: EC50 Anti-HIV-1 Activity in Human PBM Cells) amounted to 390 nM. Moreover, the EC50 in the data set on HIV-1 (strain LAV-1) (setting [7]) was found to be 290 nM. The “toxicity to human bone marrow cells” value in the data set with human bone marrow cells was “high toxicity”. For the same substance, in [3] (bled on day 17), the “Hct (hematocrit)” value is reported as 14.82 ± 4.44%, the “Hgb (hemaglobin)” value stood at 5.5 ± 1.43 g/dL, the MCH amounted to 17.64 ± 2.07 pg and the “MCHC (mean corpuscular hemoglobin concentration)” value amounted to 37.66 ± 4.32 g/dL. For the same substance, in data set [3] (bled on day 17), the “MCV (mean corpuscular volume)” value stood at 46.86 ± 0.4, the “PLT (platelates) (×1000)” value was 226.4 ×1000, the “RBC (×1000000)” value is reported as 3.16 ± 0.95 ×1000000 and the “RDW (width of red cells)” value is given as 35.6 ± 2.12%. In addition, in data set [3] (bled on day 17), the “WBC (×1000)” value is on record as 4.16 ± 1.45 ×1000. Further, the Mortality in data set [3] (dead/total) is 0/5. For the same substance, the “toxicity to human bone marrow cells (order of toxicity, FIG. 6)” value in [4] is “most toxic”.

In the case of K5BW12O40 [α-K5BT], the EC50 in data set [5] worked out at 910 nM; in the data set on HIV-1 (strain LAV-1) (setting [7]), 360 nM; in data set [6], 2900 nM.
